Source: patent US20110071169A1, “Preparation of polymorphic form of lapatinib ditosylate” (MAI DE LTD, priority 2009, published 2011)

Tests used:
[1] = Thermal phase stability on heating; format: physicochemical; conditions: heating of the crystalline form
[2] = Stability study of bulk material (stability-indicating HPLC, polymorphic form); conditions: elevated temperature and humidity (40° C./75%)
Description: The stability of Form A or Form B of lapatinib ditosylate bulk material and tablets is assessed by storing samples for up to 12 weeks at 25° C./60% RH or up to 5 weeks at 40° C./75% RH. Changes are monitored using a stability-indicating HPLC method. Results were calculated by normalized peak area (npa). Degradants are identified by comparison of their relative retention times against impurity standards.

[3] = Solubility in solvent mixtures; format: physicochemical
Description: The use of a relatively concentrated solution, e.g. about 5 mg/mL or above 5 mg/mL therefore is preferred.
In a preferred aspect, Form A of lapatinib ditosylate may be prepared by slurring starting material, crude or pure lapatinib ditosylate, anhydrate or solvate, which can be obtained according to the procedures described in U.S. Pat. No. 7,157,466 (or WO02/02552) with an organic solvent or a mixture of two or more organic solvents under heat. The lapatinib ditosylate is soluble in a mixture of water and THF, but not soluble in non-polar organic solvents. The preferred organic solvent is tetrahydrofuran. The concentration of lapatinib ditosylate within the solution may range from about 0.1% by weight to the saturation point. This concentration will, of course, vary depending upon the temperature at which the co-solvent solution is held, with warmer temperatures generally allowing for the preparation of more concentrated solutions of lapatinib ditosylate. Preferably, the concentration (w/w %) of lapatinib ditosylate starting material in solution is about 0.5-15%, preferably about 1-10%, more preferably about 1.5-5%. The volume ratio of tetrahydrofuran to water is about 50-95:50-5, preferably about 70-95:30-5, more preferably about 80-95:20-5, most preferably about 85:15. Water is then added into the above suspension, and the mixture is heated, suitably to a temperature in the range of from about 45° C. to 85° C., such as about 50° C. to 75° C., for example about 65-70° C. until all solid materials are dissolved. The clear and hot solution is allowed to cool down to ambient temperature, and the cooled solution is kept at ambient temperature for crystallization. The crystal Form A of lapatinib ditosylate is formed over a period of 1 hour to 4 days, and the crystal Form A is recovered from the solvent by filtration. The obtained crystal From A can be dried under a vacuum oven at about 20° C.-60° C., preferably at about 25° C.-50° C., more preferably at about 25° C.-35° C., and most preferably at […] for about 10-40 hours to remove the solvent residues.
In a preferred aspect, Form B of lapatinib ditosylate may be prepared by slurring starting material, crude or pure lapatinib ditosylate, anhydrate or solvate, which can be obtained according to the procedures described in U.S. Pat. No. 7,157,466 (or WO02/02552) with an organic solvent or a mixture of two or more organic solvents under heat. The lapatinib ditosylate is soluble in a mixture of water and THF, but not soluble in non-polar solvent. The preferred organic solvent is tetrahydrofuran. The concentration of lapatinib ditosylate within the solution may range from about 0.1% by weight to the saturation point. […]

CS(=O)(=O)CCNCc1ccc(-c2ccc3ncnc(Nc4ccc(OCc5cccc(F)c5)c(Cl)c4)c3c2)o1.Cc1ccc(S(=O)(=O)O)cc1 [Form A, hydrate ditosylate salt of N-[3-chloro-4-[(3-fluorophenyl)methoxy]phenyl]-6-[5-[[[2-(methylsulfonyl)ethyl]amino]methyl]-2-furanyl]-4-Quinazolinamine]
heating temperature up to which no phase transformation occurs [1]: up to 40 °C
time for which polymorph (phase) and chemical stability was demonstrated [2]: over 5 weeks

CS(=O)(=O)CCNCc1ccc(-c2ccc3ncnc(Nc4ccc(OCc5cccc(F)c5)c(Cl)c4)c3c2)o1.Cc1ccc(S(=O)(=O)O)cc1.Cc1ccc(S(=O)(=O)O)cc1 [Form B, ditosylate salt of N-[3-chloro-4-[(3-fluorophenyl)methoxy]phenyl]-6-[5-[[[2-(methylsulfonyl)ethyl]amino]methyl]-2-furanyl]-4-Quinazolinamine]
heating temperature up to which no phase transformation occurs [1]: up to 45 °C

CS(=O)(=O)CCNCc1ccc(-c2ccc3ncnc(Nc4ccc(OCc5cccc(F)c5)c(Cl)c4)c3c2)o1.Cc1ccc(S(=O)(=O)O)cc1 [lapatinib ditosylate, N-[3-chloro-4-[(3-fluorophenyl)methoxy]phenyl]-6-[5-[[[2-(methylsulfonyl)ethyl]amino]methyl]-2-furanyl]-4-Quinazolinamine, bis(4-methylbenzenesulfonate)]
solubility (in words) ([3]; mixture of water and THF): soluble
solubility (in words) ([3]; mixture of water and methanol or ethanol): moderately soluble
concentration of complete dissolution ([3]; mixture of water and methanol or ethanol, room temperature): ≥ 5000 µg/mL
solubility (in words) ([3]; non-polar organic solvents): not soluble
